Source: ChEMBL document CHEMBL3885861, “Open TG-GATES”

Species on record: Rattus norvegicus
Experiment: Open TG-GATES - Regimen: Daily Repeat
Assay type: toxicity, organism-based, Sprague-Dawley
Set-up: regimen Daily Repeat, gender Male, age 6 weeks
Conditions: in vivo, po, route gavage; for APTT / Bas / Eos / Fbg / Hb / Ht / Lym / MCH / MCHC / Mono / Neu / Plat / RBC / Ret: tissue Blood; for KIDNEY_L / KIDNEY_R / KIDNEY_TOTAL: tissue Kidney; for LIVER: tissue Liver; for ALP / ALT / AST / BUN / CRE / Ca / Cl / DBIL / GLC / IP / K / LDH / Na / PL / RALB / TBIL / TC / TG / TP / gamma-GTP: tissue Plasma
[1] = 10 mg/kg, 72 h, dose level Middle, time 3 day
[2] = 10 mg/kg, […], dose level Middle, time 7 day
[3] = 10 mg/kg, […], dose level Middle, time 14 day
[4] = 10 mg/kg, […], dose level Middle, time 28 day
[5] = 30 mg/kg, 72 h, dose level High, time 3 day
[6] = 30 mg/kg, […], dose level High, time 7 day
[7] = 30 mg/kg, […], dose level High, time 14 day
[8] = 30 mg/kg, […], dose level High, time 28 day

O=C(CCCN1CCC(O)(c2ccc(Cl)cc2)CC1)c1ccc(F)cc1 [HALOPERIDOL]
TERMINAL_BW [1]: 211.5 g | APTT [1]: 16 s | Bas [1]: 0% | Eos [1]: 0.6% | Fbg [1]: 205.8 mg/dL | Hb [1]: 14.8 g/dL | Ht [1]: 44.6% | Lym [1]: 81.4% | MCH [1]: 21.3 pg | MCHC [1]: 33.3% | Mono [1]: 5.8% | Neu [1]: 12.2% | Plat [1]: 127.9 x10_4/uL | RBC [1]: 695.4 x10_4/ul | Ret [1]: 4.6% | KIDNEY_L [1]: 0.9 g | KIDNEY_R [1]: 0.9 g | KIDNEY_TOTAL [1]: 1.8 g | LIVER [1]: 10.3 g | ALP [1]: 873.2 IU/L | ALT [1]: 41 IU/L | AST [1]: 64 IU/L | BUN [1]: 22.2 mg/dL | CRE [1]: 0.5 mg/dL | Ca [1]: 11.3 mg/dL | Cl [1]: 106.2 meq/L | DBIL [1]: 0.002 mg/dL | GLC [1]: 180 mg/dL | IP [1]: 7.8 mg/dL | K [1]: 4.7 meq/L | LDH [1]: 95 IU/L | Na [1]: 138.8 meq/L | PL [1]: 177.8 mg/dL | RALB [1]: 4.2 g/dL | TBIL [1]: 0.2 mg/dL | TC [1]: 78.2 mg/dL | TG [1]: 156.2 mg/dL | TP [1]: 6.2 g/dL | gamma-GTP [1]: 1.2 IU/L | TERMINAL_BW [2]: 234.1 g | TERMINAL_BW [3]: 281.3 g | TERMINAL_BW [4]: 341 g | APTT [2]: 16.8 s | Bas [2]: 0% | Eos [2]: 0.4% | Fbg [2]: 215.6 mg/dL | Hb [2]: 15 g/dL | Ht [2]: 44.6% | Lym [2]: 75.4% | MCH [2]: 21 pg | MCHC [2]: 33.7% | Mono [2]: 5% | Neu [2]: 19.2% | Plat [2]: 99.5 x10_4/uL | RBC [2]: 717.6 x10_4/ul | Ret [2]: 3.7% | APTT [3]: 16.3 s | Bas [3]: 0% | Eos [3]: 0.2% | Fbg [3]: 212.2 mg/dL | Hb [3]: 14.7 g/dL | Ht [3]: 43.9% | Lym [3]: 75.6% | MCH [3]: 20.3 pg | MCHC [3]: 33.5% | Mono [3]: 4.2% | Neu [3]: 20% | Plat [3]: 93.8 x10_4/uL | RBC [3]: 722.2 x10_4/ul | Ret [3]: 3.6% | APTT [4]: 16 s | Bas [4]: 0% | Eos [4]: 0.4% | Fbg [4]: 220.6 mg/dL | Hb [4]: 15.3 g/dL | Ht [4]: 45.8% | Lym [4]: 78.8% | MCH [4]: 19.5 pg | MCHC [4]: 33.5% | Mono [4]: 5.6% | Neu [4]: 15.2% | Plat [4]: 95.6 x10_4/uL | RBC [4]: 788.6 x10_4/ul | Ret [4]: 2.6% | KIDNEY_L [2]: 1 g | KIDNEY_R [2]: 1 g | KIDNEY_TOTAL [2]: 1.9 g | KIDNEY_L [3]: 1.1 g | KIDNEY_R [3]: 1.1 g | KIDNEY_TOTAL [3]: 2.2 g | KIDNEY_L [4]: 1.2 g | KIDNEY_R [4]: 1.2 g | KIDNEY_TOTAL [4]: 2.4 g | LIVER [2]: 10.8 g | LIVER [3]: 12.3 g | LIVER [4]: 13.4 g | ALP [2]: 930.4 IU/L | ALT [2]: 38.6 IU/L | AST [2]: 66.8 IU/L | BUN [2]: 20.2 mg/dL | CRE [2]: 0.6 mg/dL | Ca [2]: 11.4 mg/dL | Cl [2]: 106.6 meq/L | DBIL [2]: 0.004 mg/dL | GLC [2]: 179.6 mg/dL | IP [2]: 7.3 mg/dL | K [2]: 4.6 meq/L | LDH [2]: 84.8 IU/L | Na [2]: 139 meq/L | PL [2]: 174.4 mg/dL | RALB [2]: 4 g/dL | TBIL [2]: 0.3 mg/dL | TC [2]: 84.8 mg/dL | TG [2]: 123.8 mg/dL | TP [2]: 6.2 g/dL | gamma-GTP [2]: 1.8 IU/L | ALP [3]: 773.8 IU/L | ALT [3]: 29.2 IU/L | AST [3]: 62.8 IU/L | BUN [3]: 19.8 mg/dL | CRE [3]: 0.4 mg/dL | Ca [3]: 10.7 mg/dL | Cl [3]: 107 meq/L | DBIL [3]: 0.036 mg/dL | GLC [3]: 184.2 mg/dL | IP [3]: 7.8 mg/dL | K [3]: 4.5 meq/L | LDH [3]: 83.2 IU/L | Na [3]: 138.4 meq/L | PL [3]: 156 mg/dL | RALB [3]: 4 g/dL | TBIL [3]: 0.3 mg/dL | TC [3]: 70.2 mg/dL | TG [3]: 146 mg/dL | TP [3]: 6.2 g/dL | gamma-GTP [3]: 1.6 IU/L | ALP [4]: 603.8 IU/L | ALT [4]: 32.4 IU/L | AST [4]: 66.8 IU/L | BUN [4]: 20.4 mg/dL | CRE [4]: 0.6 mg/dL | Ca [4]: 10.7 mg/dL | Cl [4]: 107.8 meq/L | DBIL [4]: 0.062 mg/dL | GLC [4]: 172.8 mg/dL | IP [4]: 6.4 mg/dL | K [4]: 4.7 meq/L | LDH [4]: 72 IU/L | Na [4]: 139.4 meq/L | PL [4]: 141 mg/dL | RALB [4]: 4.2 g/dL | TBIL [4]: 0.3 mg/dL | TC [4]: 63.6 mg/dL | TG [4]: 133.4 mg/dL | TP [4]: 6.7 g/dL | gamma-GTP [4]: 1.6 IU/L | TERMINAL_BW [5]: 179.6 g | APTT [5]: 15.7 s | Bas [5]: 0% | Eos [5]: 1% | Fbg [5]: 192.8 mg/dL | Hb [5]: 15.9 g/dL | Ht [5]: 47.3% | Lym [5]: 83.4% | MCH [5]: 21.2 pg | MCHC [5]: 33.6% | Mono [5]: 5% | Neu [5]: 10.6% | Plat [5]: 127.3 x10_4/uL | RBC [5]: 751.8 x10_4/ul | Ret [5]: 2.4% | KIDNEY_L [5]: 0.8 g | KIDNEY_R [5]: 0.9 g | KIDNEY_TOTAL [5]: 1.7 g | LIVER [5]: 7.7 g | ALP [5]: 686.4 IU/L | ALT [5]: 29.4 IU/L | AST [5]: 62 IU/L | BUN [5]: 28.2 mg/dL | CRE [5]: 0.6 mg/dL | Ca [5]: 11.2 mg/dL | Cl [5]: 108.6 meq/L | DBIL [5]: 0.002 mg/dL | GLC [5]: 162.2 mg/dL | IP [5]: 8.5 mg/dL | K [5]: 4.7 meq/L | LDH [5]: 176.8 IU/L | Na [5]: 142.2 meq/L | PL [5]: 159.6 mg/dL | RALB [5]: 4.4 g/dL | TBIL [5]: 0.2 mg/dL | TC [5]: 88.2 mg/dL | TG [5]: 80.8 mg/dL | TP [5]: 6.2 g/dL | gamma-GTP [5]: 1.2 IU/L | TERMINAL_BW [6]: 213.8 g | TERMINAL_BW [7]: 254.9 g | TERMINAL_BW [8]: 329.7 g | APTT [6]: 16.7 s | Bas [6]: 0% | Eos [6]: 0.4% | Fbg [6]: 189.6 mg/dL | Hb [6]: 15.4 g/dL | Ht [6]: 46.2% | Lym [6]: 82% | MCH [6]: 21 pg | MCHC [6]: 33.4% | Mono [6]: 6.8% | Neu [6]: 10.8% | Plat [6]: 89.5 x10_4/uL | RBC [6]: 735.6 x10_4/ul | Ret [6]: 2.5% | APTT [7]: 15.9 s | Bas [7]: 0% | Eos [7]: 0.4% | Fbg [7]: 195.2 mg/dL | Hb [7]: 15.4 g/dL | Ht [7]: 46.4% | Lym [7]: 84.6% | MCH [7]: 20 pg | MCHC [7]: 33.3% | Mono [7]: 3.4% | Neu [7]: 11.6% | Plat [7]: 94.6 x10_4/uL | RBC [7]: 773.4 x10_4/ul | Ret [7]: 2.9% | APTT [8]: 16.7 s | Bas [8]: 0% | Eos [8]: 0.6% | Fbg [8]: 210.2 mg/dL | Hb [8]: 15.2 g/dL | Ht [8]: 45.1% | Lym [8]: 84.4% | MCH [8]: 19.4 pg | MCHC [8]: 33.6% | Mono [8]: 3.6% | Neu [8]: 11.4% | Plat [8]: 96.5 x10_4/uL | RBC [8]: 782.8 x10_4/ul | Ret [8]: 2.6% | KIDNEY_L [6]: 0.9 g | KIDNEY_R [6]: 0.9 g | KIDNEY_TOTAL [6]: 1.8 g | KIDNEY_L [7]: 1 g | KIDNEY_R [7]: 1.1 g | KIDNEY_TOTAL [7]: 2.1 g | KIDNEY_L [8]: 1.2 g | KIDNEY_R [8]: 1.2 g | KIDNEY_TOTAL [8]: 2.4 g | LIVER [6]: 10.3 g | LIVER [7]: 10.8 g | LIVER [8]: 12.8 g | ALP [6]: 1009 IU/L | ALT [6]: 38.8 IU/L | AST [6]: 67.2 IU/L | BUN [6]: 25.4 mg/dL | CRE [6]: 0.5 mg/dL | Ca [6]: 11.8 mg/dL | Cl [6]: 106 meq/L | DBIL [6]: 0.008 mg/dL | GLC [6]: 164.2 mg/dL | IP [6]: 7.6 mg/dL | K [6]: 4.6 meq/L | LDH [6]: 154.4 IU/L | Na [6]: 140 meq/L | PL [6]: 175.6 mg/dL | RALB [6]: 4.1 g/dL | TBIL [6]: 0.2 mg/dL | TC [6]: 77.6 mg/dL | TG [6]: 113.6 mg/dL | TP [6]: 6.1 g/dL | gamma-GTP [6]: 1.6 IU/L | ALP [7]: 689.4 IU/L | ALT [7]: 30.2 IU/L | AST [7]: 65 IU/L | BUN [7]: 24 mg/dL | CRE [7]: 0.5 mg/dL | Ca [7]: 11 mg/dL | Cl [7]: 105.6 meq/L | DBIL [7]: 0.012 mg/dL | GLC [7]: 179.4 mg/dL | IP [7]: 7.8 mg/dL | K [7]: 4.7 meq/L | LDH [7]: 178.6 IU/L | Na [7]: 138.8 meq/L | PL [7]: 162.4 mg/dL | RALB [7]: 3.9 g/dL | TBIL [7]: 0.3 mg/dL | TC [7]: 76.2 mg/dL | TG [7]: 107.4 mg/dL | TP [7]: 6.1 g/dL | gamma-GTP [7]: 1.2 IU/L | ALP [8]: 528.8 IU/L | ALT [8]: 31.6 IU/L | AST [8]: 65.4 IU/L | BUN [8]: 25.6 mg/dL | CRE [8]: 0.5 mg/dL | Ca [8]: 11.1 mg/dL | Cl [8]: 107 meq/L | DBIL [8]: 0.076 mg/dL | GLC [8]: 177.8 mg/dL | IP [8]: 7.6 mg/dL | K [8]: 4.7 meq/L | LDH [8]: 138.6 IU/L | Na [8]: 140.2 meq/L | PL [8]: 148.6 mg/dL | RALB [8]: 3.9 g/dL | TBIL [8]: 0.2 mg/dL | TC [8]: 67 mg/dL | TG [8]: 136.8 mg/dL | TP [8]: 6.3 g/dL | gamma-GTP [8]: 2.2 IU/L
